Laboratory results published in ChEMBL document CHEMBL1201862, “PubChem BioAssay data set” (2004).
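Results reflect a 48-hour exposure of cells in 96-well plates to compound at five concentrations. Abbreviation: GI50, concentration required for 50% inhibition of growth.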 The source made the active and inactive calls. Cut-off read from the data, not from the text of the source: active = GI50 up to about 1.1 µM and inactive = higher.

Columns and labels:
Assay in all cases: inhibition of tumour cell growth, NCI panel, 48 h
ACHN = tested on: ACHN
SF-539 = tested on: SF-539
RPMI-8226 = tested on: RPMI-8226
HCT-15 = tested on: HCT-15
786-0 = tested on: 786-0
UACC-257 = tested on: UACC-257
OVCAR-5 = tested on: OVCAR-5
A549 = tested on: A549
HCC 2998 = tested on: HCC 2998
NCI-H460 = tested on: NCI-H460
LOX IMVI = tested on: LOX IMVI
RXF 393 = tested on: RXF 393
KM-20L2 = tested on: KM-20L2
MOLT-4 = tested on: MOLT-4
CAKI-1 = tested on: CAKI-1
UACC-62 = tested on: UACC-62
LXFL 529 = tested on: LXFL 529
CCRF-CEM = tested on: CCRF-CEM
Malme-3M = tested on: Malme-3M
K562 = tested on: K562
EKVX = tested on: EKVX
SK-OV-3 = tested on: SK-OV-3
SF-268 = tested on: SF-268
TK-10 = tested on: TK-10
HL-60 = tested on: HL-60
A498 = tested on: A498
HT-29 = tested on: HT-29
SNB-75 = tested on: SNB-75
HOP-62 = tested on: HOP-62
KM12 = tested on: KM12
SR = tested on: SR
HOP-92 = tested on: HOP-92
HOP-18 = tested on: HOP-18
NCI-H226 = tested on: NCI-H226
HCT-116 = tested on: HCT-116
SK-MEL-28 = tested on: SK-MEL-28
OVCAR-3 = tested on: OVCAR-3
DMS-273 = tested on: DMS-273
SW-620 = tested on: SW-620
RXF 631 = tested on: RXF 631
OVCAR-4 = tested on: OVCAR-4
SF-295 = tested on: SF-295
NCI-H23 = tested on: NCI-H23
COLO 205 = tested on: COLO 205
IGROV-1 = tested on: IGROV-1
OVCAR-8 = tested on: OVCAR-8
SNB-19 = tested on: SNB-19
DLD-1 = tested on: DLD-1
SNB-78 = tested on: SNB-78
U-251 = tested on: U-251
SN12C = tested on: SN12C
M14 = tested on: M14
DMS-114 = tested on: DMS-114
UO-31 = tested on: UO-31
NCI-H522 = tested on: NCI-H522
SK-MEL-5 = tested on: SK-MEL-5
M19-MEL = tested on: M19-MEL
SK-MEL-2 = tested on: SK-MEL-2

Measured: GI50

Nc1nc(-c2ccccc2)cc(-c2cc(Cl)ccc2O)n1
inactive: ACHN 25.6 µM | SF-539 31.6 µM | RPMI-8226 > 100 µM | 786-0 55 µM | UACC-257 > 100 µM | OVCAR-5 > 100 µM | A549 42.7 µM | HCC 2998 > 100 µM | NCI-H460 43.9 µM | LOX IMVI 54 µM | RXF 393 64.3 µM | KM-20L2 > 100 µM | MOLT-4 > 100 µM | CAKI-1 74.5 µM | UACC-62 > 100 µM | LXFL 529 48.3 µM | CCRF-CEM > 100 µM | Malme-3M > 100 µM | K562 > 100 µM | EKVX 46.9 µM | SK-OV-3 34.2 µM | SF-268 49.4 µM | TK-10 54.2 µM | HL-60 > 100 µM | A498 > 100 µM | HT-29 > 100 µM | SNB-75 28.7 µM | HOP-62 29.1 µM | KM12 50.9 µM | SR > 100 µM | HOP-92 > 100 µM | HOP-18 > 100 µM | NCI-H226 > 100 µM | HCT-116 39.7 µM | SK-MEL-28 > 100 µM | OVCAR-3 35.7 µM | DMS-273 44.7 µM | SW-620 > 100 µM | RXF 631 > 100 µM | OVCAR-4 63.8 µM | SF-295 83.6 µM | NCI-H23 45.7 µM | COLO 205 > 100 µM | IGROV-1 49.3 µM | OVCAR-8 32.9 µM | SNB-19 53.8 µM | DLD-1 98.2 µM | SNB-78 > 100 µM | U-251 35.6 µM | SN12C > 100 µM | M14 > 100 µM | DMS-114 55.6 µM | UO-31 39.9 µM | NCI-H522 25.9 µM
> 100 µM: HCT-15

CC(C)CN(CC(C)C)C(=O)C1CCCC[C@@H]1C(=O)O (stereo not given in full)
> 100 µM: HCT-15
inactive: ACHN > 100 µM | SF-539 > 100 µM | RPMI-8226 > 100 µM | 786-0 > 100 µM | UACC-257 > 100 µM | OVCAR-5 > 10 µM | A549 > 100 µM | HCC 2998 > 100 µM | NCI-H460 > 100 µM | LOX IMVI > 100 µM | KM-20L2 > 100 µM | MOLT-4 > 100 µM | SK-MEL-5 > 100 µM | CAKI-1 > 100 µM | UACC-62 > 100 µM | LXFL 529 > 100 µM | CCRF-CEM > 100 µM | Malme-3M > 100 µM | M19-MEL > 100 µM | K562 > 100 µM | EKVX > 100 µM | SK-OV-3 > 100 µM | SF-268 > 100 µM | TK-10 > 100 µM | HL-60 > 100 µM | A498 > 100 µM | HT-29 > 100 µM | SNB-75 > 100 µM | HOP-62 > 100 µM | KM12 > 100 µM | SR > 100 µM | HOP-92 > 100 µM | HOP-18 > 100 µM | NCI-H226 > 100 µM | HCT-116 > 100 µM | SK-MEL-28 > 100 µM | OVCAR-3 > 100 µM | DMS-273 > 100 µM | SW-620 > 100 µM | RXF 631 > 100 µM | OVCAR-4 > 100 µM | SF-295 > 100 µM | SK-MEL-2 > 100 µM | NCI-H23 > 100 µM | COLO 205 > 100 µM | IGROV-1 > 100 µM | OVCAR-8 > 100 µM | DLD-1 > 100 µM | SNB-78 > 100 µM | U-251 > 100 µM | SN12C > 100 µM | M14 > 100 µM | DMS-114 > 100 µM | UO-31 > 100 µM | NCI-H522 > 100 µM

CCC(C)COC(=O)c1ccc(/N=C\c2ccc(/C=N/c3ccc(C(=O)OCC(C)CC)cc3)cc2)cc1 (stereo not given)
> 100 µM: HCT-15
inactive: ACHN > 100 µM | SF-539 > 100 µM | RPMI-8226 > 100 µM | 786-0 > 100 µM | UACC-257 > 100 µM | OVCAR-5 > 100 µM | A549 > 100 µM | HCC 2998 > 100 µM | NCI-H460 > 100 µM | LOX IMVI > 100 µM | RXF 393 > 100 µM | KM-20L2 > 100 µM | MOLT-4 > 100 µM | SK-MEL-5 > 100 µM | CAKI-1 > 100 µM | UACC-62 > 100 µM | LXFL 529 > 100 µM | CCRF-CEM > 100 µM | Malme-3M > 100 µM | K562 > 100 µM | EKVX > 100 µM | SK-OV-3 > 100 µM | SF-268 > 100 µM | HL-60 > 100 µM | A498 > 100 µM | HT-29 > 100 µM | SNB-75 > 100 µM | HOP-62 > 100 µM | SR > 100 µM | HOP-92 > 100 µM | HOP-18 > 100 µM | NCI-H226 > 100 µM | HCT-116 > 100 µM | SK-MEL-28 > 100 µM | OVCAR-3 > 100 µM | DMS-273 > 100 µM | SW-620 > 100 µM | RXF 631 > 100 µM | OVCAR-4 > 100 µM | SF-295 > 100 µM | SK-MEL-2 > 100 µM | NCI-H23 > 100 µM | COLO 205 > 100 µM | IGROV-1 > 100 µM | OVCAR-8 > 100 µM | SNB-19 > 100 µM | DLD-1 > 100 µM | SNB-78 > 100 µM | U-251 > 100 µM | SN12C > 100 µM | M14 > 100 µM | DMS-114 > 100 µM | UO-31 10.5 µM | NCI-H522 > 100 µM

C1CCN(c2nsc(N3CCCCC3)n2)CC1
> 100 µM: HCT-15
inactive: ACHN > 100 µM | SF-539 > 100 µM | RPMI-8226 87.3 µM | 786-0 > 100 µM | UACC-257 > 100 µM | OVCAR-5 > 100 µM | A549 > 100 µM | HCC 2998 > 100 µM | NCI-H460 > 100 µM | LOX IMVI > 100 µM | RXF 393 > 100 µM | KM-20L2 > 100 µM | MOLT-4 > 100 µM | SK-MEL-5 > 100 µM | CAKI-1 > 100 µM | UACC-62 > 100 µM | LXFL 529 > 100 µM | CCRF-CEM > 100 µM | Malme-3M > 100 µM | M19-MEL > 100 µM | K562 > 100 µM | EKVX > 100 µM | SK-OV-3 > 100 µM | SF-268 > 100 µM | TK-10 > 100 µM | HL-60 92 µM | A498 > 100 µM | HT-29 > 100 µM | SNB-75 > 100 µM | HOP-62 > 100 µM | KM12 > 100 µM | SR > 100 µM | HOP-92 97.1 µM | HOP-18 > 100 µM | NCI-H226 > 100 µM | HCT-116 > 100 µM | SK-MEL-28 > 100 µM | DMS-273 > 100 µM | SW-620 > 100 µM | RXF 631 > 100 µM | OVCAR-4 > 100 µM | SF-295 > 100 µM | SK-MEL-2 > 100 µM | NCI-H23 > 100 µM | IGROV-1 > 100 µM | OVCAR-8 > 100 µM | SNB-19 > 100 µM | DLD-1 > 100 µM | SNB-78 > 100 µM | U-251 > 100 µM | SN12C > 100 µM | M14 > 100 µM | DMS-114 > 100 µM | UO-31 > 100 µM | NCI-H522 > 100 µM

CC1=C(C(=O)Nc2cc(F)c(F)cc2F)C(c2ccc(N(C)C)cc2)C(C(=O)Nc2cc(F)c(F)cc2F)=C(C)N1
inactive: ACHN 19.4 µM | SF-539 18.2 µM | RPMI-8226 17.2 µM | 786-0 27.1 µM | UACC-257 25.5 µM | OVCAR-5 32.5 µM | A549 16.4 µM | HCC 2998 23.7 µM | NCI-H460 30.3 µM | LOX IMVI 31.8 µM | RXF 393 17.1 µM | KM-20L2 34 µM | MOLT-4 15.4 µM | SK-MEL-5 17.8 µM | CAKI-1 13.8 µM | LXFL 529 19.3 µM | CCRF-CEM 18.5 µM | Malme-3M 32.7 µM | M19-MEL 38 µM | K562 23.6 µM | EKVX 16 µM | SK-OV-3 30.1 µM | SF-268 27 µM | TK-10 32.7 µM | HL-60 13.9 µM | A498 19.1 µM | HT-29 30.3 µM | SNB-75 21.5 µM | HOP-62 21.1 µM | KM12 19.9 µM | NCI-H226 20.6 µM | SK-MEL-28 30.5 µM | DMS-273 26.9 µM | SW-620 28.8 µM | RXF 631 23 µM | OVCAR-4 17.7 µM | SF-295 24.3 µM | SK-MEL-2 28.8 µM | NCI-H23 20.9 µM | COLO 205 43.2 µM | IGROV-1 35.5 µM | OVCAR-8 29.6 µM | SNB-19 38.7 µM | DLD-1 34.9 µM | SNB-78 17.7 µM | U-251 28.9 µM | SN12C 30.1 µM | M14 31.3 µM | DMS-114 17.2 µM | UO-31 17.1 µM | NCI-H522 19.8 µM
active: HOP-92 0.53 µM | OVCAR-3 0.432 µM
